# Source: patent publication US20100151004A1, “MODULATION OF DRUG SENSITIVITY” (UNIVERSITY OF MEDICINE AND DENTISTRY OF NEW JERSEY, priority 2007, published 2010)
# Entries after “also recorded” stand apart in the source; their conditions may differ.
# What was measured:
# HCT-8/P tumor = assay: Colorectal cancer xenograft model, tumor volume; type: in vivo, mice
# Description: (§1) Two independent experiments were performed and animals received either 1 or 2 courses of treatment (1 or 2 weeks) followed by an additional week of observation. […] Prior to the experiment tumors were grounded to a powder in LN2. Following the tumor harvest or if tumor diameter is greater than 1 cm, or greater than 15% weight loss occurred the animals were euthanized. All experiments were performed according to the protocol approved by The Institutional Animal Care and Use Committee at RWJMS. […] Gels were quantitated using ChemiDoc XRS machine and Quantity One 1-D analysis software (BioRad, Hercules, Calif., USA).
# HCT-8/4hFU tumor = assay: Colorectal cancer xenograft model, tumor volume; type: in vivo, mice; conditions: for tumor response (tumor volume): one course, DAC 3×0.5 mg/kg i.p., 5-FU 1×50 mg/kg i.p.; for tumor response (tumor growth): two courses, DAC 3×0.5 mg/kg/course i.p., 5-FU 1×50 mg/kg/course i.p.
# Description: as §1
# HCT-8/4hFU cells [1] = assay: MTS cytotoxicity assay, continuous 5-FU exposure (4 days); type: cell-based, human
# Description: Number of viable cells was determined by MTS assay.
# colorectal cancer = conditions: patients, typical clinical response; cited from earlier work
# HCT-8/4hFU cells [2] = assay: MTS cytotoxicity assay, 4 h bolus drug exposure; type: cell-based, human
# Excerpt: Cancer Res 1992 Apr. […] Louis, Mo., USA).
# HCT-8/P cells = assay: MTS cytotoxicity assay, 4 h bolus drug exposure
# [3] = tested on: UMPK promoter and first exon CpG sites in HCT-8/4hFU cells; assay: Pyro Q-CpG analysis of methylation; type: cell-based, human; conditions: HCT-8/4hFU + 0.5 μM DAC for 24 h
# Description: DNA was extracted from tumors or cells using standard phenol-chlorophorm-isoamyl alcohol extraction (Invitrogen, Carlsbad, Calif., USA). 2 μg of sample DNA or 1 μg of control DNA was bisulfite modified using EZ DNA Methylation Kit (Zymo Research, Orange, Calif., USA). 1 ul out of 10 ul of post bisulfite modified DNA was used for PCR. Bisulfite treated fetal cell DNA and in vitro methylated human DNA (Chemicon, Millipore, Billerica, Mass.) were used in the assay development and PCR bias testing. The following reagents were mixed together in preparation for the Pyrosequencing reaction: Streptavidin beads 2 μl, 2× binding buffer 40 μl, PCR product 10 μl, water 28 μl. The assay was performed by EpigenDx (Worcester, Mass., USA) using PSQHS 96 System. Methylation of 42 CpG sites was analyzed.
# UMPK in HCT-8/P tumors = assay: UMPK mRNA in xenograft tumors after DAC treatment (Q-RT-PCR); type: in vivo, mice; conditions: HCT-8/P group
# Description: (§2) Total RNA was extracted from 1-5×10^6 cells or powdered tumors using Trizol Reagent (Invitrogen, Carlsbad, Calif., USA) and run on 1% folmaldehyde-agarose gel to assess the quality of the RNA. Gene specific primers and fluorescent-labeled probe (FAM and TAMRA) were designed using Primer Express Software from ABI (Applied Biosystems, Foster City, Calif., USA). 50 ng of RNA was amplified in one-step RT-PCR reaction (Applied Biosystems, Foster City, Calif., USA) using TaqMan Real-Time PCR machine (7000 SDS). 18SrRNA (FAM) (Applied Biosystems, Foster City, Calif., USA) or β-actin (FAM-TAMRA) was used to normalize the results. Delta delta Ct method was used to calculate relative fold change in mRNA level (Livak K J, Schmittgen T D. Analysis of relative gene expression data using real-time quantitative PCR and the 2(−Delta Delta C(T)) Method. Methods 2001 December; 25(4):402-8). The sequence of UMPK forward primer is 5′-AAGAAGGAAAGATTGTACCAGTTGAGA-3′ (SEQ ID NO: 7), reverse primer 5′-GGAAACCCATCAATCAAGAATTTATT-3′ (SEQ ID NO: 8), and probe 5-FAM-AGAGGGAAATGGATCAGACAATGGCTGC-TAMRA-3′ (SEQ ID NO: 9).
# (§3) HCT-8/P or HCT-8/4hFU cells (2.5×10^6) were injected subcutaneously into SKID nu/nu mice (Taconic, Germantown, N.Y., USA). When tumors were palpable animals were randomized into 4 groups (5-10 animals per group) and treated with DAC (Tuesday, Wednesday, Thursday, 0.5 mg/kg, i.p.), or 5-FU (Friday, 50 mg/kg, i.p.), or DAC & 5-FU, or PBS as a control. Measurements of tumor size and animal weight were performed every 3-4 days. Two independent experiments were performed and animals received either 1 or 2 courses of treatment (1 or 2 weeks) followed by an additional week of observation. In order to assay UMPK induction in tumors, animals from DAC alone, and DAC & 5-FU groups received additional course of DAC treatment towards the end of experiment. 24 hours after the third dose of DAC was administered animals were anesthetized, and tumors harvested, washed in PBS and flash frozen in LN2. Prior to the experiment tumors were grounded to a powder in LN2. Following the tumor harvest or if tumor diameter is greater than 1 cm, or greater than 15% weight loss occurred the animals were euthanized. All experiments were performed according to the protocol approved by The Institutional Animal Care and Use Committee at RWJMS.
# [4] = tested on: UMPK mRNA in HCT-8/4hFU tumors; assay: as above; type: in vivo, mice
# Description: as §2, §3
# [5] = tested on: UMPK expression in HCT-8/P cells; assay: UMPK expression after DAC exposure in cultured cells; type: cell-based, human; conditions: low-dose DAC for 24 h
# Description: (§4) Cells (1-5×10^6) were trypsinized, washed twice with PBS and kept frozen in −80° C. until used. Cell pellets or powdered tumors (vide infra) were thawed and resuspended in 0.5 ml of RIPA buffer (50 mM Tris-HCl buffer pH 7.4, 3 mM sodium fluoride and 4 mM DTT) supplemented with protease inhibitors. Samples were sonicated (2×20 s, 60% power) on ice and centrifuged for 20 min at 20,000 rpm. […] of lysate was loaded onto 10% SDS-PAGE gel and after transfer to nitrocellulose probed with anti-UMPK polyclonal antibody (1:1000) for 2 hours (gift of Dr Y. C. Cheng, Yale University) and secondary ant-rabbit antibody (1:5000) for 1 hour (Sigma St Louis, Mo., USA) or anti-α-tubulin (1:10000) for 1 hour (Sigma, St Louis, Mo., USA) and anti-mouse antibody (1:2000) for 0.5 h (Santa Cruz, Calif., USA) as a control.
# (§5) Total RNA was extracted from 1-5×10^6 cells or powdered tumors using Trizol Reagent (Invitrogen, Carlsbad, Calif., USA) and run on 1% folmaldehyde-agarose gel to assess the quality of the RNA. […] Delta delta Ct method was used to calculate relative fold change in mRNA level (Livak K J, Schmittgen T D. Analysis of relative gene expression data using real-time quantitative PCR and the 2(−Delta Delta C(T)) Method. Methods 2001 December; 25(4):402-8). […]
# [6] = tested on: UMPK expression in HCT-8/4hFU cells; assay: UMPK mRNA (Q-RT-PCR) and protein (Western blotting) after DAC exposure in cultured cells; type: cell-based, human; conditions: low-dose DAC for 24 h
# Description: as §4, §5
# [7] = one course, DAC 3×0.5 mg/kg i.p., 5-FU 1×50 mg/kg i.p.
# [8] = two courses, DAC 3×0.5 mg/kg/course i.p., 5-FU 1×50 mg/kg/course i.p.
# [9] = DAC 0.0005 μM-0.5 μM, 24 h exposure
smiles,measurement,setting,value
"O=c1[nH]cc(F)c(=O)[nH]1 [5-FU, 5-Fluorouracil]",tumor response (tumor growth),HCT-8/P tumor; [7],responded
same,tumor response (tumor growth),HCT-8/P tumor; [8],responded
same,tumor response (tumor volume),HCT-8/4hFU tumor,resistant
same,tumor response (tumor growth),HCT-8/4hFU tumor,partial response
same,"sensitivity to continuous exposure to 5-FU, HCT-8/4hFU versus HCT-8/P",HCT-8/4hFU cells [1],equally sensitive
same,response rate,colorectal cancer,less than 30%
same,"fold resistance to bolus 5-FU, HCT-8/4hFU versus HCT-8/P","HCT-8/4hFU cells [2]; bolus 4 h exposure, cell viability assay",3-4 fold
"O=c1[nH]c(=O)n([C@@H]2O[C@H](CO)[C@@H](O)[C@H]2O)cc1F [5-FUR, 5-fluorouridine]","increase in the IC50 value, HCT-8/4hFU as compared to HCT-8/P cells",HCT-8/4hFU cells [2]; 5-FUR 4 h exposure,≤ 10 fold
"Nc1ncn([C@H]2C[C@H](O)[C@@H](CO)O2)c(=O)n1 [DAC, 5-Azadeoxycytidine]",cell kill,HCT-8/P cells; [9],less than 20%
same,effect of DAC on sensitivity of HCT-8/P cells to 5-FU or 5-FUR,"HCT-8/P cells; DAC 24 h pretreatment, then 5-FU or 5-FUR 4 h",Much less of an effect; also recorded: do not show increased sensitivity
same,Mean methylation across 36 CpG sites,[3],2.74
same,tumor response (tumor growth),HCT-8/P tumor; [7],most significant delay in the tumor growth
same,tumor response (tumor growth),HCT-8/P tumor; [8],most significant effect
same,tumor response (tumor volume),HCT-8/4hFU tumor,resistant
same,tumor response (tumor growth),HCT-8/4hFU tumor,No significant response
same,increase of UMPK after DAC treatment,UMPK in HCT-8/P tumors,No increase
same,increase in UMPK mRNA as compared to untreated tumor,[4]; after one course of DAC (3×0.5 mg/kg),4 fold
same,increase in UMPK mRNA as compared to untreated tumor,[4]; after two and three weeks of DAC treatment,≤ 20 fold
same,average increase of UMPK in tumors of the group of animals,"[4]; animals of the two-course experiment, relative to untreated HCT-8/4hFU tumors",8.5 fold
same,UMPK expression,[5],No increase
same,restoration of sensitivity of HCT-8/4hFU cells to that seen in HCT-8/P cells,HCT-8/4hFU cells [2]; 0.02 μM DAC 24 h pretreatment,able to restore the sensitivity
same,cell kill,HCT-8/4hFU cells [2]; [9],less than 20%
same,effect of DAC pretreatment on sensitivity to bolus 5-FU,"HCT-8/4hFU cells [2]; DAC 24 h pretreatment, then 5-FU 4 h",makes HCT-8/4hFU cells sensitive
same,effect of DAC pretreatment on sensitivity to 5-FUR,"HCT-8/4hFU cells [2]; DAC 24 h pretreatment, then 5-FUR 4 h",makes HCT-8/4hFU cells sensitive
same,UMPK mRNA as well as protein levels,[6],dose dependent increase
